Results as given in PubChem BioAssay AID328 (DTP/NCI, 2004).
“And” between values parts separate entries of the source, which are not always exact repeats. Identical values can stand only once. Toxic doses and inconclusive results are not listed.

Tested on: BDF1 mice, P388 leukemia ip, median survival T/C
Experiment: NCI In Vivo Anticancer Drug Screen. Data for tumor model P388 Leukemia (intraperitoneal) in B6D2F1 (BDF1) mice
Conditions: endpoint: median survival time, higher = longer survival
Method in brief: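 Compound-treated tumour-bearing mice were compared with vehicle-treated controls. Survival was recorded, and the value is the treated-group measurement divided by the control-group measurement (T/C).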

[1] = dose: 100.0 mg/kg/injection, schedule: Q04DX003 (ip), vehicle: saline with Tween-80
[2] = dose: 200.0 mg/kg/injection, schedule: Q04DX003 (ip), vehicle: saline with Tween-80
[3] = dose: 400.0 mg/kg/injection, schedule: Q04DX003 (ip), vehicle: saline with Tween-80
[4] = dose: 50.0 mg/kg/injection, schedule: Q01DX009 (ip), vehicle: saline with Tween-80
[5] = dose: 100.0 mg/kg/injection, schedule: Q01DX009 (ip), vehicle: saline with Tween-80
[6] = dose: 25.0 mg/kg/injection, schedule: Q01DX009 (ip), vehicle: saline with Tween-80

Structure (SMILES): CCCCNC(=S)Nc1sc(C)c(C)c1C(=O)OCC
- T/C [1]: 106 % of control
- T/C [2]: 99 % of control
- T/C [3]: 99 % of control

Structure (SMILES): BrCCN(CCBr)c1cccc(/C=C/c2ccccc2)c1
- T/C (dose: 50.0 mg/kg/injection, schedule: Q01DX009 (ip), vehicle: Klucel (hydroxypropylcellulose) (HPC)): 99 % of control
- T/C (dose: 100.0 mg/kg/injection, schedule: Q01DX009 (ip), vehicle: Klucel (hydroxypropylcellulose) (HPC)): 101 % of control
- T/C (dose: 200.0 mg/kg/injection, schedule: Q01DX009 (ip), vehicle: Klucel (hydroxypropylcellulose) (HPC)): 114 % of control

Structure (SMILES): CCCC1CC(C(=O)NC(C(C)Cl)C2OC(SC)C(O)C(O)C2O)N(C)C1 (stereo not drawn)
- T/C (dose: 50.0 mg/kg/injection, schedule: Q01DX009 (ip), vehicle: saline): 100 % of control
- T/C (dose: 100.0 mg/kg/injection, schedule: Q01DX009 (ip), vehicle: saline): 94 % of control
- T/C (dose: 200.0 mg/kg/injection, schedule: Q01DX009 (ip), vehicle: saline): 102 % of control

Structure (SMILES): O=C1C(C(O)c2ccccc2)SC(c2ccccc2)N1c1ccccc1 (stereo not drawn)
- T/C (dose: 12.5 mg/kg/injection, schedule: Q04DX003 (ip), vehicle: Klucel (hydroxypropylcellulose) (HPC)): 96 % of control
- T/C (dose: 25.0 mg/kg/injection, schedule: Q04DX003 (ip), vehicle: Klucel (hydroxypropylcellulose) (HPC)): 96 % of control
- T/C (dose: 50.0 mg/kg/injection, schedule: Q04DX003 (ip), vehicle: Klucel (hydroxypropylcellulose) (HPC)): 96 % of control
- T/C (dose: 400.0 mg/kg/injection, schedule: Q04DX003 (ip), vehicle: Klucel (hydroxypropylcellulose) (HPC)): 90 % of control

Structure (SMILES): CSc1nc2c(N)nc(N)nc2nc1C
- T/C [1]: 100 % of control
- T/C [2]: 108 % of control
- T/C [3]: 108 % of control

Structure (SMILES): O=C1OC2(CCCCC2)Cc2oc3ccccc3c(=O)c21
- T/C (dose: 50.0 mg/kg/injection, schedule: Q01DX005 (ip), vehicle: Klucel (hydroxypropylcellulose) (HPC)): 87 % of control
- T/C (dose: 200.0 mg/kg/injection, schedule: Q01DX005 (ip), vehicle: Klucel (hydroxypropylcellulose) (HPC)): 92 % of control

Structure (SMILES): O=[N+]([O-])c1ccc(/C=C/c2cccc(/C=C/c3ccc([N+](=O)[O-])cc3)[n+]2[O-])cc1
- T/C (dose: 50.0 mg/kg/injection, schedule: Q01DX005 (ip), vehicle: saline with Tween-80): 96 % of control
- T/C (dose: 100.0 mg/kg/injection, schedule: Q01DX005 (ip), vehicle: saline with Tween-80): 94 % of control
- T/C (dose: 200.0 mg/kg/injection, schedule: Q01DX005 (ip), vehicle: saline with Tween-80): 93 % of control

Structure (SMILES): CC(Oc1ccccc1)C(=O)N=c1scc(-c2ccc(Br)cc2)n1-c1cccc2ccccc12 (stereo not drawn)
- T/C (dose: 12.5 mg/kg/injection, schedule: Q01DX009 (ip), vehicle: gum acacia): 110 % of control
- T/C (dose: 50.0 mg/kg/injection, schedule: Q01DX009 (ip), vehicle: gum acacia): 118 % of control

Structure (SMILES): OC(Nc1nccs1)C(Cl)(Cl)Cl (stereo not drawn)
- T/C [4]: 104 % of control
- T/C [5]: 110 % of control
- T/C (dose: 200.0 mg/kg/injection, schedule: Q01DX009 (ip), vehicle: saline with Tween-80): 94 % of control

Structure (SMILES): O=C(O)c1cc2ccccc2o1
- T/C [6]: 100 % of control
- T/C [4]: 104 % of control
- T/C [5]: 109 % of control

Structure (SMILES): O=C(O)C1OC(n2cc([N+](=O)[O-])c(=O)[nH]c2=O)C(O)C1O (stereo not drawn)
- T/C [6]: 95 % of control
- T/C [4]: 96 % of control
- T/C [5]: 93 % of control

Structure (SMILES): O=NN1CCNC1=O
- T/C (dose: 7.2 mg/kg/injection, schedule: Q04DX003 (ip), vehicle: saline): 172 % of control
- T/C (dose: 10.0 mg/kg/injection, schedule: Q04DX003 (ip), vehicle: saline): 113 % of control
- T/C (dose: 16.5 mg/kg/injection, schedule: Q04DX003 (ip), vehicle: saline): 209 % of control
- T/C (dose: 25.0 mg/kg/injection, schedule: Q04DX003 (ip), vehicle: saline): 86 % of control
- T/C (dose: 37.5 mg/kg/injection, schedule: Q04DX003 (ip), vehicle: saline): 90 % of control

Structure (SMILES): O=C(O)c1ccc(CCCC2CCCC2)cc1
- T/C (dose: 100.0 mg/kg/injection, schedule: Q04DX003 (ip), vehicle: Klucel (hydroxypropylcellulose) (HPC)): 109 % of control
- T/C (dose: 200.0 mg/kg/injection, schedule: Q04DX003 (ip), vehicle: Klucel (hydroxypropylcellulose) (HPC)): 100 % of control

Structure (SMILES): CCCCOc1ccc(C(=O)NN)cc1
- T/C (dose: 6.25 mg/kg/injection, schedule: Q01DX009 (ip), vehicle: saline with Tween-80): 118 % of control
- T/C (dose: 6.25 mg/kg/injection, schedule: Q04DX003 (ip), vehicle: saline with Tween-80): 100 % of control
- T/C (dose: 12.5 mg/kg/injection, schedule: Q01DX009 (ip), vehicle: saline with Tween-80): 108 % of control
- T/C (dose: 12.5 mg/kg/injection, schedule: Q04DX003 (ip), vehicle: saline with Tween-80): 91 % of control and 92 % of control
- T/C [6]: 99 % of control
- T/C (dose: 25.0 mg/kg/injection, schedule: Q04DX003 (ip), vehicle: saline with Tween-80): 90 % of control and 106 % of control
- T/C [4]: 115 % of control
- T/C (dose: 50.0 mg/kg/injection, schedule: Q04DX003 (ip), vehicle: saline with Tween-80): 97 % of control and 98 % of control
- T/C [5]: 97 % of control
